Experimental data reported in US10301280B2 (Plexxikon Inc., priority 2012, dated 2019).

biological target: c-kit mutant D816V (Homo sapiens (Human), UniProt P10721, D816V/DEL694-753); test: c-Kit mutant D816V biochemical assay (AlphaScreen); settings: c-kit D816V biochemical inhibitory activity
Procedure, shortened: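 His-tagged c-Kit D816V kinase domain (551-934, Δ694-753, E. coli) phosphorylating 30 nM biotin-(E4Y)10 at 10 μM ATP in HEPES pH 7.2 with Mg/Mn, 5% DMSO, 30 min at room temperature. PY20-acceptor/streptavidin-donor AlphaScreen detection after EDTA stop. IC50 from 8-point 1:3 titration.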

Chain of c-kit mutant D816V (P10721 other isoform, or with tags, fused parts or gaps D816V/del 694-753): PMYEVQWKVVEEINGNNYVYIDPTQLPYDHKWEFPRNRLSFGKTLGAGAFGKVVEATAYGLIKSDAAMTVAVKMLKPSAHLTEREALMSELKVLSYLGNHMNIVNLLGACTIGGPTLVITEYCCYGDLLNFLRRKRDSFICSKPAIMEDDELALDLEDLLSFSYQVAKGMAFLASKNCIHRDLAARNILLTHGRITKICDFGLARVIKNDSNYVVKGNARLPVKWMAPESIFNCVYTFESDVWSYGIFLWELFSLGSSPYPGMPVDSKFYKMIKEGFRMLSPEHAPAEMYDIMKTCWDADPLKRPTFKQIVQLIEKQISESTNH

| SMILES | IC50 [µM] |
| --- | --- |
| O=C(Nc1cnc2[nH]c(-c3ccccc3)cc2c1)c1[nH]ncc1Br [P-2005, 4-bromo-N-(2-phenyl-1H-pyrrolo[2,3-b]pyridin-5-yl)-1H-pyrazole-5-carboxamide] | 0.0001 to 1 |
| Cc1n[nH]c(C(=O)Nc2cnc3[nH]c(-c4ccccc4)cc3c2)c1C [P-2007, 3,4-dimethyl-N-(2-phenyl-1H-pyrrolo[2,3-b]pyridin-5-yl)-1H-pyrazole-5-carboxamide] | 0.0001 to 1 |
| Cc1[nH]nc(C(=O)Nc2cnc3[nH]c(-c4ccc(N5CCOCC5)cc4)cc3c2)c1C [P-2059, 4,5-dimethyl-N-[2-(4-morpholinophenyl)-1H-pyrrolo[2,3-b]pyridin-5-yl]-1H-pyrazole-3-carboxamide] | 0.0001 to 1 |
| Cc1n[nH]c(C(=O)Nc2cnc3[nH]c(C4=CCN(C(=O)C5CC5)C4)cc3c2)c1Cl [P-2060, 4-chloro-N-[2-[1-(cyclopropanecarbonyl)-2,5-dihydropyrrol-3-yl]-1H-pyrrolo[2,3-b]pyridin-5-yl]-3-methyl-1H-pyrazole-5-carboxamide] | 0.0001 to 1 |
| CC(=O)N1CC=C(c2cc3cc(NC(=O)c4[nH]nc(C)c4Cl)cnc3[nH]2)CC1 [P-2061, N-[2-(1-acetyl-3,6-dihydro-2H-pyridin-4-yl)-1H-pyrrolo[2,3-b]pyridin-5-yl]-4-chloro-3-methyl-1H-pyrazole-5-carboxamide] | 0.0001 to 1 |
| Cc1n[nH]c(C(=O)Nc2cnc3[nH]c(C4=CCN(C(=O)N5CCOCC5)C4)cc3c2)c1Cl [P-2062, 4-chloro-3-methyl-N-[2-[1-(morpholine-4-carbonyl)-2,5-dihydropyrrol-3-yl]-1H-pyrrolo[2,3-b]pyridin-5-yl]-1H-pyrazole-5-carboxamide] | 0.0001 to 1 |
| Cc1n[nH]c(C(=O)Nc2cnc3[nH]c(-c4cccc(N(C)C)c4)cc3c2)c1C [P-2064, N-[2-[3-(dimethylamino)phenyl]-1H-pyrrolo[2,3-b]pyridin-5-yl]-3,4-dimethyl-1H-pyrazole-5-carboxamide] | 0.0001 to 1 |
| Cc1n[nH]c(C(=O)Nc2cnc3[nH]c(-c4c(C)noc4C)cc3c2)c1C [P-2065, N-[2-(3,5-dimethylisoxazol-4-yl)-1H-pyrrolo[2,3-b]pyridin-5-yl]-3,4-dimethyl-1H-pyrazole-5-carboxamide] | 0.0001 to 1 |
| CNC(=O)c1ccc(-c2cc3cc(NC(=O)c4[nH]nc(C)c4C)cnc3[nH]2)cc1 [P-2067, 3,4-dimethyl-N-[2-[4-(methylcarbamoyl)phenyl]-1H-pyrrolo[2,3-b]pyridin-5-yl]-1H-pyrazole-5-carboxamide] | 0.0001 to 1 |
| Cc1[nH]nc(C(=O)Nc2cnc3[nH]c(-c4ccnc(N5CCN(C)CC5)c4)cc3c2)c1C [P-2069, 4,5-dimethyl-N-[2-[2-(4-methylpiperazin-1-yl)-4-pyridyl]-1H-pyrrolo[2,3-b]pyridin-5-yl]-1H-pyrazole-3-carboxamide] | 0.0001 to 1 |
| Cc1[nH]nc(C(=O)Nc2cnc3[nH]c(-c4cccc(N5CCOCC5)c4)cc3c2)c1C [P-2070, 4,5-dimethyl-N-[2-(3-morpholinophenyl)-1H-pyrrolo[2,3-b]pyridin-5-yl]-1H-pyrazole-3-carboxamide] | 0.0001 to 1 |
| Cc1n[nH]c(C(=O)Nc2cnc3[nH]c(C4=CCN(C(=O)CN5CCOCC5)CC4)cc3c2)c1C [P-2073, 3,4-dimethyl-N-[2-[1-(2-morpholinoacetyl)-3,6-dihydro-2H-pyridin-4-yl]-1H-pyrrolo[2,3-b]pyridin-5-yl]-1H-pyrazole-5-carboxamide] | 0.0001 to 1 |
| Cc1n[nH]c(C(=O)Nc2cnc3[nH]c(C4=CCN(C(=O)C(O)CO)CC4)cc3c2)c1C (stereo not drawn) [P-2074, N-[2-[1-(2,3-dihydroxypropanoyl)-3,6-dihydro-2H-pyridin-4-yl]-1H-pyrrolo[2,3-b]pyridin-5-yl]-3,4-dimethyl-1H-pyrazole-5-carboxamide] | 0.0001 to 1 |
| Cc1n[nH]c(C(=O)Nc2cnc3[nH]c(-c4cccc(N5CCCC5)c4)cc3c2)c1C [P-2079, 3,4-dimethyl-N-[2-(3-pyrrolidin-1-ylphenyl)-1H-pyrrolo[2,3-b]pyridin-5-yl]-1H-pyrazole-5-carboxamide] | 0.0001 to 1 |
| Cc1n[nH]c(C(=O)Nc2cnc3[nH]c(C4=CCC(N)CC4)cc3c2)c1C (stereo not drawn) [P-2080, N-[2-(4-aminocyclohexen-1-yl)-1H-pyrrolo[2,3-b]pyridin-5-yl]-3,4-dimethyl-1H-pyrazole-5-carboxamide] | 0.0001 to 1 |
| Cc1n[nH]c(C(=O)Nc2cnc3[nH]c(-c4ccc(C#N)c(N5CCOCC5)c4)cc3c2)c1C [P-2081, N-[2-(4-cyano-3-morpholino-phenyl)-1H-pyrrolo[2,3-b]pyridin-5-yl]-3,4-dimethyl-1H-pyrazole-5-carboxamide] | 0.0001 to 1 |
| Cc1n[nH]c(C(=O)Nc2cnc3[nH]c(-n4cccn4)cc3c2)c1C [P-2112, 3,4-dimethyl-N-(2-pyrazol-1-yl-1H-pyrrolo[2,3-b]pyridin-5-yl)-1H-pyrazole-5-carboxamide] | 0.0001 to 1 |
| Cc1cc(C(=O)Nc2cnc3[nH]c(-n4cccn4)cc3c2)[nH]n1 [P-2116, 3-methyl-N-(2-pyrazol-1-yl-1H-pyrrolo[2,3-b]pyridin-5-yl)-1H-pyrazole-5-carboxamide] | 1 to 10 |
| Cc1n[nH]c(C(=O)Nc2cnc3[nH]c(-c4cccc(N5CCN(C(=O)C6CC6)CC5)c4)cc3c2)c1C [P-2118, N-[2-[3-[4-(cyclopropanecarbonyl)piperazin-1-yl]phenyl]-1H-pyrrolo[2,3-b]pyridin-5-yl]-3,4-dimethyl-1H-pyrazole-5-carboxamide] | 0.0001 to 1 |
| Cc1n[nH]c(C(=O)Nc2cnc3sc(-c4ccccc4)nc3c2)c1C [P-2144, 3,4-dimethyl-N-(2-phenylthiazolo[5,4-b]pyridin-6-yl)-1H-pyrazole-5-carboxamide] | 1 to 10 |
| Cc1n[nH]c(C(=O)Nc2cnc3[nH]c(-c4ccc(C(=O)NC5CC5)cc4)cc3c2)c1C [P-2148, N-[2-[4-(cyclopropylcarbamoyl)phenyl]-1H-pyrrolo[2,3-b]pyridin-5-yl]-3,4-dimethyl-1H-pyrazole-5-carboxamide] | 0.0001 to 1 |
